This is an account of results in US8536351B2, “2-aryl-5-heterocyclyl-cyclohexane-1,3,dione compounds and their use as herbicides” (Syngenta Crop Protection LLC, priority 2007, dated 2013).

Holding throughout (type): in vivo
In assay [1] the test system is Alopecurus myosuroides (ALOMY). The assay is described as follows: Pre-emergence activity, glasshouse pot test (100=total damage to plant; 0=no damage to plant). Conditions: rate 500 g/ha, evaluated 19, 20 or 21 days after spraying. The procedure:
(§1) Monocotyledonous and dicotyledonous test plants were sown in standard soil in pots. After cultivation for one day (pre-emergence) or after 10 days cultivation (post-emergence) under controlled conditions in a glasshouse, the plants were sprayed with an aqueous spray solution derived from the formulation of the technical active ingredient in 0.6 ml acetone and 45 ml formulation solution containing 10.6% Emulsogen EL (Registry number 61791-12-6), 42.2% N-methyl pyrrolidone, 42.2% dipropylene glycol monomethyl ether (Registry number 34590-94-8) and 0.2% X-77 (Registry number 11097-66-8). The test plants were then grown in a greenhouse under optimum conditions until, 14 or 15 days later for post-emergence and 19, 20 or 21 days for pre-emergence, the test was evaluated (100=total damage to plant; 0=no damage to plant). Alopecurus myosuroides (ALOMY), Avena fatua (AVEFA), Lolium perenne (LOLPE), Setaria faberi (SETFA), Digitaria sanguinalis (DIGSA), Echinochloa crus-galli (ECHCG) Pre-Emergence Activity

In assay [2] the test system is Avena fatua (AVEFA). The description is as above. Particulars: rate 500 g/ha, evaluated 19, 20 or 21 days after spraying. As to the method: as §1
Assay [3] has as its system Digitaria sanguinalis (DIGSA). The assay is described as above. Particulars: rate 500 g/ha, evaluated 19, 20 or 21 days after spraying. The procedure: as §1
Assay [4] deals with Echinochloa crus-galli (ECHCG). Described as above. Particulars: rate 500 g/ha, evaluated 19, 20 or 21 days after spraying. The procedure: as §1
The subject of assay [5] is Lolium perenne (LOLPE). Described as above. Particulars: rate 500 g/ha, evaluated 19, 20 or 21 days after spraying. The procedure: as §1
The subject of assay [6] is Setaria faberi (SETFA). Described as above. Particulars: rate 500 g/ha, evaluated 19, 20 or 21 days after spraying. As to the method: as §1
In assay [7] the test system is Alopecurus myosuroides (ALOMY). The experiment in a line: Post-emergence activity, glasshouse pot test (100=total damage to plant; 0=no damage to plant). Particulars: 336 h, evaluated 14 or 15 days after spraying; for pest or weed control at 500 g/ha: rate 500 g/ha. The procedure:
as §1, with “Post-Emergence” for “Pre-Emergence”

Assay [8] relates to Avena fatua (AVEFA). The description is as above. Particulars: 336 h, evaluated 14 or 15 days after spraying; for pest or weed control at 500 g/ha: rate 500 g/ha. As to the method:
as §1, with “Post-Emergence” for “Pre-Emergence”

Assay [9] has as its system Digitaria sanguinalis (DIGSA). Described as above. Particulars: evaluated 14 or 15 days after spraying; for pest or weed control at 500 g/ha: rate 500 g/ha. The procedure: as §1, with “Post-Emergence” for “Pre-Emergence”
For assay [10], the system named is Echinochloa crus-galli (ECHCG). The description is as above. Particulars: evaluated 14 or 15 days after spraying; for pest or weed control at 500 g/ha: rate 500 g/ha. As to the method:
as §1, with “Post-Emergence” for “Pre-Emergence”

For assay [11], the system named is Lolium perenne (LOLPE). The assay is described as above. Conditions: 336 h, evaluated 14 or 15 days after spraying; for pest or weed control at 500 g/ha: rate 500 g/ha. The procedure:
as §1, with “Post-Emergence” for “Pre-Emergence”

For assay [12], the system named is Setaria faberi (SETFA). Described as above. Conditions: evaluated 14 or 15 days after spraying; for pest or weed control at 500 g/ha: rate 500 g/ha. As to the method:
as §1, with “Post-Emergence” for “Pre-Emergence”

In general, pest or weed control refers to the degree to which the test organism was suppressed or injured, in per cent. Take `CCc1cc(C)cc(CC)c1C1=C(O)CC(C2CCS(=O)(=O)CC2)CC1=O` (stereo not drawn) [Compound T20]: the pest or weed control at 500 g/ha (in [1]; with Avena fatua (AVEFA) [2]; in [3]; in assay [4]; with Lolium perenne (LOLPE) [5]; in the assay on Setaria faberi (SETFA) [6]) was 100% each time. Besides, the pest or weed control at 500 g/ha worked out at 80% in assay [7]; 70% in the assay on Avena fatua (AVEFA) [8]; 100% in [9]; 100% in assay [10]; 60% with Lolium perenne (LOLPE) [11]; 90% in the assay on Setaria faberi (SETFA) [12].

For the compound `CCc1cc(C)cc(C)c1C1=C(O)CC(C2CCSCC2)CC1=O` (stereo not drawn) [Compound T21], the pest or weed control at 500 g/ha in [1] is 40%; in the assay with Avena fatua (AVEFA) [2] it was 70%; in [3], 100%; in assay [4] it was 100%; in the assay with Lolium perenne (LOLPE) [5] it was 40%; with Setaria faberi (SETFA) [6], 100%. In addition, the pest or weed control at 500 g/ha in [7] was 80%; in the assay with Avena fatua (AVEFA) [8] it was 70%; in assay [9], 80%; in assay [10] it was 100%; in the assay with Lolium perenne (LOLPE) [11], 70%; in the assay on Setaria faberi (SETFA) [12], 90%.

On to `CCc1cc(C)cc(CC)c1C1=C(O)CC(C2CCC[S+]([O-])C2)CC1=O` (stereo not drawn) [Compound T23], for which the pest or weed control at 500 g/ha in [1] is 100%; in the assay with Avena fatua (AVEFA) [2] it was 100%; in assay [3], 100%; in [4], 50%; in the assay with Lolium perenne (LOLPE) [5] it was 100%; in the assay with Setaria faberi (SETFA) [6] it was 70%. Moreover, the pest or weed control at 125 g/ha in [7] (rate 125 g/ha) came to 90%; in the assay on Avena fatua (AVEFA) [8] (rate 125 g/ha), 90%; in assay [9] (rate 125 g/ha), 70%; in assay [10] (rate 125 g/ha), 80%; with Lolium perenne (LOLPE) [11] (rate 125 g/ha) it was 90%; in the assay with Setaria faberi (SETFA) [12] (rate 125 g/ha), 50%.
